ChEMBL document CHEMBL1201862, “PubChem BioAssay data set” (2004)
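1) Cells in 96-well plates. 2) Compound, 48 h, 5 concentrations. 3) Linear interpolation between surrounding doses. 4) Unreached endpoint = highest concentration. GI50 is the concentration that inhibits growth by half.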 Active and inactive are the calls of the source. Rule as the data show it: active = GI50 up to about 1.1 µM and inactive = higher. Where a SMILES comes first, the peptide text is derived from it. The star is where a group is joined. Boc = CC(C)(C)OC(=O)*; OBn = c1ccc(CO*)cc1

How the values were obtained:
Test in all cases: NCI-60 cell line screen, 48 h
[1] = system: A549
[2] = system: ACHN
[3] = system: EKVX
[4] = system: HL-60
[5] = system: HOP-62
[6] = system: LOX IMVI
[7] = system: M14
[8] = system: NCI-H460
[9] = system: OVCAR-4
[10] = system: OVCAR-5
[11] = system: PC-3
[12] = system: SF-268
[13] = system: SF-295
[14] = system: SK-MEL-28
[15] = system: SK-MEL-2
[16] = system: SW-620
[17] = system: T47D
[18] = system: TK-10
[19] = system: UACC-62
[20] = system: Malme-3M

Measured: GI50

COC(=O)CN(CC1O[C@@H]2OC(C)(C)O[C@@H]2C1N=[N+]=[N-])C(=O)OCc1ccccc1 (stereo partly drawn)
inactive: [1] > 100 µM | [2] > 100 µM | [3] > 100 µM | [4] 69.3 µM | [5] > 100 µM | [6] > 100 µM | [7] > 100 µM | [8] > 100 µM | [9] > 100 µM | [10] > 100 µM | [11] > 100 µM | [12] > 100 µM | [13] > 100 µM | [14] > 100 µM | [15] > 100 µM | [16] > 100 µM | [17] > 100 µM | [18] > 100 µM | [19] > 100 µM

CC(=N\N=C\c1ccccn1)/C(C)=N/N=C(C)/C(C)=N/N=C(C)/C(C)=N/N=C/c1ccccn1
inactive: [1] > 100 µM | [2] > 100 µM | [3] > 100 µM | [4] > 100 µM | [5] > 100 µM | [6] > 100 µM | [7] > 100 µM | [20] > 100 µM | [8] > 100 µM | [9] > 100 µM | [10] > 100 µM | [11] > 100 µM | [12] > 100 µM | [13] > 100 µM | [14] > 100 µM | [15] > 100 µM | [16] > 100 µM | [17] > 100 µM | [18] > 100 µM

CN(Cc1cnc2nc(N)nc(N)c2n1)c1ccc(C(=O)NC(CO)CCCO)cc1 (stereo not drawn)
inactive: [2] > 100 µM | [3] > 100 µM | [4] > 100 µM | [5] > 100 µM | [6] > 100 µM | [7] > 100 µM | [20] > 100 µM | [8] > 100 µM | [10] > 100 µM | [11] > 100 µM | [12] > 100 µM | [13] > 100 µM | [14] > 100 µM | [15] > 100 µM | [16] > 100 µM | [17] > 100 µM | [18] > 100 µM | [19] > 100 µM

O=C(O)c1cccc(S(=O)(=O)NN2C(=O)CSC2c2ccc(Cl)cc2Cl)c1 (stereo not drawn)
inactive: [1] > 100 µM | [2] > 100 µM | [3] 68.5 µM | [4] 12 µM | [5] 44.9 µM | [6] 34.2 µM | [7] 34.5 µM | [20] 82.4 µM | [8] 41.3 µM | [10] > 100 µM | [11] 94.2 µM | [12] 36.2 µM | [13] 51.6 µM | [14] 23.2 µM | [15] 32.3 µM | [16] 34.2 µM | [17] > 100 µM | [18] > 100 µM | [19] 28.6 µM

COc1ccc(CNc2nc3ccccc3nc2C(=O)O)cc1
inactive: [1] > 100 µM | [3] 78.2 µM | [4] 95.7 µM | [5] > 100 µM | [6] 45.4 µM | [7] > 100 µM | [8] 55.5 µM | [10] > 100 µM | [11] > 100 µM | [12] > 100 µM | [13] 51.4 µM | [14] > 100 µM | [15] > 100 µM | [16] > 100 µM | [17] 65.3 µM | [18] > 100 µM | [19] > 100 µM

Cn1c2c(c3ccccc31)CC1c3c(c4ccccc4n3C)CC21 (stereo not drawn)
inactive: [1] > 100 µM | [2] > 100 µM | [3] > 100 µM | [4] > 100 µM | [5] > 100 µM | [6] > 100 µM | [7] > 100 µM | [20] > 100 µM | [8] > 100 µM | [9] > 100 µM | [10] > 100 µM | [11] > 100 µM | [12] > 100 µM | [13] > 100 µM | [14] > 100 µM | [16] > 100 µM | [17] > 100 µM | [18] > 100 µM | [19] > 100 µM

CC(=O)O[C@H]1CC[C@@]2(C)C(=CC[C@@H]3[C@@H]2CC[C@]2(C)c4nc(Cl)ccc4C[C@@H]32)C1
inactive: [1] 52 µM | [2] 33.7 µM | [3] 25.2 µM | [4] 33.8 µM | [5] 45.4 µM | [6] 40.9 µM | [7] 60 µM | [20] 61.1 µM | [8] 33.4 µM | [9] 38.8 µM | [10] 38.1 µM | [11] 50 µM | [12] 49.8 µM | [13] 24.7 µM | [14] 45.6 µM | [16] 59 µM | [17] 44.6 µM | [18] 54.3 µM | [19] 18.2 µM

NNC1=N/C(=C\c2ccco2)C(=O)N1
inactive: [1] 80.9 µM | [2] 47.5 µM | [3] > 100 µM | [4] > 100 µM | [5] > 100 µM | [6] 60.1 µM | [7] > 100 µM | [20] > 100 µM | [9] > 100 µM | [10] > 100 µM | [11] 28.8 µM | [13] > 100 µM | [14] > 100 µM | [15] > 100 µM | [16] > 100 µM | [17] > 100 µM | [18] > 100 µM | [19] 33 µM

Cc1cc(S(=O)(=O)Nc2cc(N)n[nH]2)c(SCc2nc(N)nc(N(C)C)n2)cc1Cl
inactive: [1] > 10 µM | [2] > 10 µM | [3] > 10 µM | [4] > 10 µM | [5] > 10 µM | [6] > 10 µM | [7] > 10 µM | [20] > 10 µM | [8] > 10 µM | [9] > 10 µM | [10] > 10 µM | [11] > 10 µM | [12] > 10 µM | [13] > 10 µM | [14] > 10 µM | [15] > 10 µM | [16] > 10 µM | [17] > 10 µM | [18] > 10 µM

CSCCCNC(=O)c1csc(-c2csc(CCN)n2)n1
inactive: [1] > 100 µM | [2] > 100 µM | [3] > 100 µM | [4] > 100 µM | [5] > 100 µM | [6] 59.7 µM | [7] > 100 µM | [20] 43.8 µM | [8] 91 µM | [9] > 100 µM | [10] 49.4 µM | [11] > 100 µM | [12] > 100 µM | [13] > 100 µM | [14] > 100 µM | [16] > 100 µM | [17] 74.1 µM | [18] > 100 µM | [19] > 100 µM

CC(NC(=O)C(Cc1ccccc1)NC(=O)C(Cc1ccccc1)NC(=O)OC(C)(C)C)C(=O)OCc1ccccc1 (stereo not drawn) (Boc-Phe-Phe-Ala-OBn; configuration not given here)
inactive: [1] > 100 µM | [3] > 100 µM | [4] 31.8 µM | [5] > 100 µM | [6] > 100 µM | [7] 48.4 µM | [20] 93.1 µM | [8] > 100 µM | [10] > 100 µM | [11] 68.7 µM | [12] > 100 µM | [13] 43.5 µM | [15] > 100 µM | [16] > 100 µM | [17] > 100 µM | [18] 76.2 µM | [19] 49.4 µM
